These results are taken from US20250388605A1, “HETEROBIFUNCTIONAL COMPOUNDS AND METHODS OF TREATING DISEASE” (Halda Therapeutics OpCo, Inc., priority 2022, published 2025).

Broadly, the GI50 is the concentration that inhibits growth by half. Low values mean greater sensitivity of the cells, high ones lower sensitivity of the cells. One may read the Kd as the concentration at which binding is half-saturated.

The test system of one assay is T47D cells. Kind of assay: Cellular Growth Inhibition Assay for T47D Cells (CellTiter-Glo). Type of assay: cell-based, human. The note with it: 72 hours. The method in brief:
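GI50 values derive from four-parameter regression of CellTiter-Glo 2.0 luminescence, using zero luminescence as baseline. Human breast cancer T47D cells (3000/well; DMEM, 10% FBS, 0.2 units/mL insulin) were exposed for 72 h to compound dilutions at 0.5% DMSO, with dosing starting 24 h after seeding.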
Background: In ATP-based viability assays light output follows the ATP content of the culture.

The next assay has as its target T1, BRD4-BD1 (Homo sapiens, UniProt O60885).
T1 construct: made in house; host or cells: T7 phage grown in an E. coli host derived from the BL21 strain
In words: Binding affinity to BRD4-BD1 (bromoKdELECT assay). The note with it: 11-point 3-fold dilution series.

In turn, `Cn1cc(-c2cc(C(C)(C)O)ccc2Oc2cccc(CCCN3CCN(c4ncc(C(=O)N[C@H]5C(C)(C)[C@H](Oc6ccc(C#N)c(Cl)c6)C5(C)C)cn4)CC3)c2F)c2cc[nH]c2c1=O` [Compound I-143] registered a GI50 in the assay on T47D cells (Homo sapiens) of 500 to 1500 nM. Besides, the Kd on BRD4-BD1 is 50 to 500 nM.
The like results for `Cn1cc(-c2cc(C(C)(C)O)ccc2Oc2cccc(OCCN3CCN(c4ncc(C(=O)N[C@H]5C(C)(C)[C@H](Oc6ccc(C#N)c(Cl)c6)C5(C)C)cn4)CC3)c2F)c2cc[nH]c2c1=O` [Compound I-99] were, in that order, 500 to 1500 nM and 500 to 2500 nM.
In the same order, the values of `CN(c1ccc(Oc2ccc(C(C)(C)O)cc2-c2cn(C)c(=O)c3[nH]ccc23)cc1)C1CCN(c2ncc(C(=O)N[C@H]3C(C)(C)[C@H](Oc4ccc(C#N)c(Cl)c4)C3(C)C)cn2)CC1` [Compound I-197] are below 500 nM and 50 to 500 nM.
With `Cn1cc(-c2cc(C(C)(C)O)ccc2Oc2cccc(OCCC3CCN(c4ncc(C(=O)N[C@H]5C(C)(C)[C@H](Oc6ccc(C#N)c(Cl)c6)C5(C)C)cn4)CC3)c2)c2cc[nH]c2c1=O` [Compound I-156], in the assay on T47D cells, the GI50 fell in the range of 500 to 1500 nM. On BRD4-BD1, the Kd was in the range of 500 to 2500 nM.
Compound `CCS(=O)(=O)Nc1ccc(Oc2cccc(N3CCN(C4CN(c5ncc(C(=O)N[C@H]6C(C)(C)[C@H](Oc7ccc(C#N)c(Cl)c7)C6(C)C)cn5)C4)CC3)c2)c(-c2cn(C)c(=O)c3[nH]ccc23)c1` [Compound I-126] came in with a GI50 in the assay on T47D cells (Homo sapiens) below 500 nM. On BRD4-BD1, this compound showed a Kd of 50 to 500 nM.
In the assay on T47D cells (Homo sapiens), `Cn1cc(-c2ccccc2Oc2cccc(OCCOC3CCN(c4ncc(C(=O)N[C@H]5C(C)(C)[C@H](Oc6ccc(C#N)c(Cl)c6)C5(C)C)cn4)CC3)c2)c2ccn(C)c2c1=O` [Compound I-137] displayed a GI50 below 500 nM. Also, the dissociation constant (Kd) on BRD4-BD1 was above 2500 nM.
In the assay with T47D cells (Homo sapiens), `Cn1cc(-c2cc(C(C)(C)O)ccc2Oc2cccc(OCCN3CCN(c4ncc(C(=O)N[C@H]5C(C)(C)[C@H](Oc6ccc(C#N)c(Cl)c6)C5(C)C)cn4)CC3)c2)c2cc[nH]c2c1=O` [Compound I-96] came in with a GI50 of 500 to 1500 nM. The Kd on BRD4-BD1 was in the range of 500 to 2500 nM.
In the assay on T47D cells, `Cn1cc(-c2cc(C(C)(C)O)ccc2Oc2cccc(N3CC(OC4CCN(c5ncc(C(=O)N[C@H]6C(C)(C)[C@H](Oc7ccc(C#N)c(Cl)c7)C6(C)C)cn5)CC4)C3)c2F)c2cc[nH]c2c1=O` [Compound I-190] returned a GI50 of 500 to 1500 nM. The compound also returned a Kd at BRD4-BD1 of 500 to 2500 nM.
In the case of `Cn1cc(-c2cc(C(C)(C)O)ccc2Oc2ccc(CCC3CCN(c4ncc(C(=O)N[C@H]5C(C)(C)[C@H](Oc6ccc(C#N)c(Cl)c6)C5(C)C)cn4)CC3)cc2)c2cc[nH]c2c1=O` [Compound I-203], in the assay with T47D cells (Homo sapiens), the GI50 was in the range of 500 to 1500 nM. This compound returned a Kd on BRD4-BD1 above 2500 nM.
As to `Cn1cc(-c2cc(C(C)(C)O)ccc2Oc2cccc(CCOC3CCN(c4ncc(C(=O)N[C@H]5C(C)(C)[C@H](Oc6ccc(C#N)c(Cl)c6)C5(C)C)cn4)CC3)c2F)c2cc[nH]c2c1=O` [Compound I-147], in the assay with T47D cells, the GI50 is below 500 nM. Moreover, the Kd on BRD4-BD1 is above 2500 nM.
`Cn1cc(-c2cc(C(C)(C)O)ccc2Oc2cccc(OCCOC3CCN(c4ncc(C(=O)N[C@H]5C(C)(C)[C@H](Oc6ccc(C#N)c(Cl)c6)C5(C)C)cn4)CC3)c2)c2cc[nH]c2c1=O` [Compound I-56, N-((1r, 3r)-3-(3-chloro-4-cyanophenoxy)-2,2,4,4-tetramethylcyclobutyl)-2-(4-(2-(3-(4-(2-hydroxypropan-2-yl)-2-(6-methyl-7-oxo-6,7-dihydro-1H-pyrrolo[2,3-c]pyridin-4-yl)phenoxy)phenoxy)ethoxy)piperidin-1-yl)pyrimidine-5-carboxamide] displayed a GI50 with T47D cells (Homo sapiens) below 500 nM. The compound also yielded a Kd on BRD4-BD1 of 500 to 2500 nM.
The like results for `Cn1cc(-c2cc(C(C)(C)O)ccc2Oc2cccc(CCCN3CCN(c4ncc(C(=O)N[C@H]5C(C)(C)[C@H](Oc6ccc(C#N)c(Cl)c6)C5(C)C)cn4)CC3)c2)c2cc[nH]c2c1=O` [Compound I-110] were, in that order, below 500 nM and 500 to 2500 nM.
